Measured values from patent US8354399B2, “Substituted indazole derivatives active as kinase inhibitors” (Nerviano Medical Sciences S.R.L., priority 2008, dated 2013).

Columns and labels:
IGF-1R = molecular target: T1, IGF-1R (Homo sapiens, UniProt P08069); test: Biochemical assay for inhibitors of IGF-1R kinase activity
T1 construct: amino acid residues 960-1367 of precursor protein; made in house; host or cells: H5 insect cells (baculovirus; virus generated in Sf21)
Protocol: Preparation of IGF-1R for Use in Biochemical Assay
Human cDNA was used as template for amplification by polymerase chain reaction (PCR) of the predicted cytoplasmic portion of IGF-1R (amino acid residues 960-1367 of precursor protein; see NCBI Entrez Protein Accession #P08069) which includes the entire kinase domain. PCR was conducted using the forward primer sequence
Biochemical Assay for Inhibitors of IGF-1R Kinase Activity
The inhibitory activity of putative kinase inhibitors and the potency of selected compounds were determined using a trans-phosphorylation assay.
A specific substrate was incubated with the kinase in appropriate buffer conditions in the presence of ATP traced with ^33P-γ-ATP (gamma phosphate-labeled, Redivue™ Code Number AH9968, 1000-3000Ci/mmole, Amersham Biosciences Piscataway, N.J., USA), optimal cofactors and test compound.
At the end of the phosphorylation reaction, more than 98% cold and radioactive ATP were captured by an excess of Dowex ion exchange resin. The resin was allowed to settle to the bottom of reaction wells by gravity. Supernatant, containing substrate peptide, was subsequently withdrawn and transferred into a counting plate, and radioactivity (corresponding to phosphate incorporated into peptide) was evaluated by β-counting.
Kinase buffer was composed of 50 mM HEPES pH 7.9 containing 3 mM MnCl2, 1 mM DTT, 3 microM Na3VO4, and 0.2 mg/mL BSA. 3× KB is buffer of the same composition and pH as KB, but with three times the concentration of each component.
Prior to starting the kinase inhibition assay, IGF-1R was pre-phosphorylated in order to linearize reaction kinetics. To achieve this, the desired total quantity of enzyme was prepared at an enzyme concentration of 360 nM in KB containing 100 microM ATP, and this preparation was incubated for 30 min at 28° C. 3× Enzyme Mix was obtained by diluting this preactivated enzyme 20-fold in 3× KB. […]

ALK = molecular target: T2, ALK (Homo sapiens, UniProt Q9UM73); test: Biochemical assay for inhibitors of ALK kinase activity
T2 construct: made in house; host or cells: Sf21 insect cells (baculovirus)
T2 sequence (Q9UM73 1060-1620): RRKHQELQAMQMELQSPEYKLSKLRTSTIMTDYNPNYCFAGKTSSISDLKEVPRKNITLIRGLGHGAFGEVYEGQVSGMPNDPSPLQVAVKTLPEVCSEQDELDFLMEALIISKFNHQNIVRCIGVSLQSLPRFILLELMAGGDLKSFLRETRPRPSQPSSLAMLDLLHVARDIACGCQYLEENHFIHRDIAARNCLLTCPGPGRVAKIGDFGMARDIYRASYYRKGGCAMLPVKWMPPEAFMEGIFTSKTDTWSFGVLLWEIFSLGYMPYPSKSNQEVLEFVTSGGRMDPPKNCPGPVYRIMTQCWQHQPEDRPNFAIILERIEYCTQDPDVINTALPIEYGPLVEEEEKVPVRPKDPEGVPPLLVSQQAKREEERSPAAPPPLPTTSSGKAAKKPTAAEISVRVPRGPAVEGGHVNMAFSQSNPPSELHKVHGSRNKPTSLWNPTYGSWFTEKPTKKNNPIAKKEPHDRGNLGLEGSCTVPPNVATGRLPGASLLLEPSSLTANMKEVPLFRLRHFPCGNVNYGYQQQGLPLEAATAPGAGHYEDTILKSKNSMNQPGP
From the text: Preparation of ALK Cytoplasmic Domain for Use in Biochemical Assay
ALK cytoplasmic domain, corresponding to the residue 1060-1620 (the numbers of the amino acid residues refer to the Genbank accession number NP 004295.2) was PCR amplified from a human testis cDNA library.
For cloning purposes, the oligonucleotides included attB sites in order to obtain an attB-flanked PCR product suitable for cloning using the Gateway technology (Invitrogen). Furthermore, for purification purposes, forward primer included a PreScission cleavage site (Amersham Biosciences). The resulting PCR product was cloned in the baculovirus expression vector pVL1393 (Invitrogen) Gateway-modified. For expression and purification purpose, a GST tag was added N-terminal to the ALK cytoplasmic domain. Cloning was performed according to the protocols described in the Gateway manual (Invitrogen).
Biochemical Assay for Inhibitors of ALK Kinase Activity
ALK enzyme needs pre-activation in order to linearize reaction kinetics.
Kinase buffer was composed of 50 mM HEPES pH 7.5 containing 1 mM MnCl2, 5 mM MgCl2, 1 mM DTT, 3 microM Na3VO4, and 0.2 mg/mL BSA. 3× KB is buffer of the same composition and pH as KB, but with three times the concentration of each component.
The kinase assay was run with a final enzyme concentration of 20 nM, in the presence of 8 microM ATP, 1 nM ^33P-γ-ATP and 2 microM MBP. The MPB was purchased from Sigma-Aldrich, St. Louis, Mo., USA.

JAK2 = molecular target: T3, JAK2 (Homo sapiens, UniProt O60674); test: Biochemical assay for inhibitors of JAK2 kinase activity
T3 construct: The assay has been performed using the commercially available JAK2 kinase domain; purchased Invitrogen, Eugene, Oreg
T3 sequence (O60674 849-1124 limits assumed): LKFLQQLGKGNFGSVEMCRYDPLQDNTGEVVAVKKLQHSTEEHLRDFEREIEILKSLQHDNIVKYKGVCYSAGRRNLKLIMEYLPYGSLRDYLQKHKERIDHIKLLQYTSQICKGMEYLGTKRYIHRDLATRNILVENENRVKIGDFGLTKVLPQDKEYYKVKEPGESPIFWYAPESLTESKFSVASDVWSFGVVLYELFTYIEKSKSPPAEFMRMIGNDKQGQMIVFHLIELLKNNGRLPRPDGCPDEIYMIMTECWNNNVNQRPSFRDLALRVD
From the text: Biochemical Assay for Inhibitors of JAK2 Kinase Activity
General Principle—A specific JAK2 peptide substrate is trans-phosphorylated by JAK2 kinase in the presence of ATP traced with ^33P-γ-ATP. At the end of the phosphorylation reaction, 98% of the cold and radioactive ATP is captured by an excess of dowex ion exchange resin that eventually settles by gravity to the bottom of the reaction plate. The supernatant is subsequently withdrawn and transferred into a counting plate that is then evaluated by β-counting.
JAK2 Kinase Buffer (KB—Kinase buffer was composed of 50 mM HEPES pH 7.5 containing 10 mM MgCl2, 2.5 mM DTT, 10 microM Na3VO4, and 0.2 mg/mL BSA. 3× KB is buffer of the same composition and pH as KB, but with three times the concentration of each component.
Assay conditions—The JAK2 kinase assay was run with a final enzyme concentration of 1 nM, in the presence of 60 microM ATP, 3 nM 33P-γ-ATP and 64 microM of substrate Jaktide (Aminoacid sequence: LPLDKDYYVVREPGQ). The Jaktide was purchased from American Peptide Company (Sunnyvale, Calif.).
Compound Dilution—For IC50 determination, test compounds are received as a 1 mM solution in 100% DMSO, distributed into 96 well plates: compounds are then plated into the first column of a microtiter plate (A1 to G1), 100 μl/well. […]
Another mixing cycle is performed after all the plates are stopped, this time using normal tips: the plates are then allowed to rest for about one hour in order to maximize ATP capture. At this point, 27 μl of the supernatant are transferred into 384-Optiplates (Perkin-Elmer), with 50 μl of Microscint 40 (Perkin-Elmer); after 5 min of orbital shaking the plates are read on a Perkin-Elmer Top Count radioactivity counter.
Data Fitting—Data are analyzed by an internally customized version of the SW package “Assay Explorer” that provides sigmoidal fitting of the ten-dilutions curves for IC50 determination in the secondary assays/hit confirmation routines.

T1 sequence (P08069 960-1367): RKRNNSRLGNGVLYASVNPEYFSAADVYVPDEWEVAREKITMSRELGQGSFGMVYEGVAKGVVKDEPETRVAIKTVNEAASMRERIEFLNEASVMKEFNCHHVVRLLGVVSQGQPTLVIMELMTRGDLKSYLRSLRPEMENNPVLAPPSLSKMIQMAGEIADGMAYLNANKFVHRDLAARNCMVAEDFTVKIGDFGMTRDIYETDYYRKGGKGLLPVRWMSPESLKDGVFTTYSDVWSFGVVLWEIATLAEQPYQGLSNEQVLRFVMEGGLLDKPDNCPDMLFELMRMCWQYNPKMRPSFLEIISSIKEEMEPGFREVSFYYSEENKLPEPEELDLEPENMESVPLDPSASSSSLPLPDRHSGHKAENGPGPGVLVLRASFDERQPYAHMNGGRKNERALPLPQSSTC

With `CN1CCN(c2ccc(C(=O)Nc3n[nH]c4ccc(OCc5cc(F)cc(F)c5)cc34)c(NC3CCOCC3)c2)CC1` [Cpd. 8, N-{5-[(3,5-difluorobenzyl)oxy]-1H-indazol-3-yl}-4-(4-methylpiperazin-1-yl)-2-(tetrahydro-2H-pyran-4-ylamino)benzamide] the IC50 (IGF-1R) was 0.14 µM, the IC50 (ALK) was 0.02 µM and the IC50 (JAK2) was 0.02 µM.
`CN1CCN(c2ccc(C(=O)Nc3n[nH]c4ccc(OCc5cc(F)cc(F)c5)cc34)c(NCCF)c2)CC1` [Cpd. 36, N-{5-[(3,5-difluorobenzyl)oxy]-1H-indazol-3-yl}-2-[(2-fluoroethyl)amino]-4-(4-methylpiperazin-1-yl)benzamide] was tested, and the IC50 (IGF-1R) was 0.2 µM, the IC50 (ALK) was 0.01 µM and the IC50 (JAK2) was 0.01 µM.
For `O=C(Nc1n[nH]c2ccc(OCc3cc(F)cc(F)c3)cc12)c1ccccc1` [Ref. compound, reference compound], the IC50 (IGF-1R) was greater than 10 µM, the IC50 (ALK) was 1.87 µM and the IC50 (JAK2) was 0.22 µM.
